Laboratory results as given in patent publication US20110319451A1, “5-Ht6 Receptor and Modulators Thereof for the Treatment of Insulin-Related Disorders” (priority 2008, published 2011).

What was measured:
[1] = system: C57bl/6 male mice; test: insulin release in response to a glucose bolus in mice; type: in vivo, mouse; settings: 10 mpk oral; 5, 10 and 20 minutes after glucose bolus 3 g/kg, FIG. 5
Procedure: C57bl/6 male mice (8 weeks of age) were fasted for 18 hours, and randomly assigned into eight groups with n=6 for each group. Mice were administered per orally with vehicle (20% HPCD) or with 10 mpk EMD 386088. After 30 minutes, a glucose bolus of 3 g/kg was administered orally. Blood was collected in heparinated blood collection tubes at 0 minute (no glucose bolus), 5 minutes, 10 minutes, and 20 minutes after glucose bolus. Plasma samples were obtained via centrifugation at 500×g for 20 minutes and assayed for insulin using an Ultra Sensitive Insulin ELISA kit (Crystal Chem. Inc., Downers Grove, Ill.).

[2] = system: C57/Bl6 mice; test: oral glucose tolerance test (oGTT) in C57/Bl6 mice; type: in vivo, mouse; settings: 1, 3.3 or 10 mpk oral, 30 min before glucose bolus 3 gram/kg, FIG. 5
Procedure: (§1) Thirty minutes later, a glucose bolus (3 gram/kg) was then delivered per orally. Plasma glucose levels were determined at indicated time points over a two hour period using blood (˜5 μl) collected from tail nick and a glucose meter. Glycemic excursion curve was graphed based on data from 6 mice and given in mean values +/−SEM (FIG. 5 upper left panel).

[3] = system: C57bl/6 male mice; test: plasma glucose levels (hypoglycemia) in fasted mice; type: in vivo, mouse; settings: 10 mpk or 30 mpk oral, 0-120 minutes post-dosing, FIG. 7
Procedure: Plasma glucose levels were determined at 0 minute (right before dosing), and 30, 60, 90, and 120 minutes post-dosing using blood (˜5 μl) collected from tail nick and a glucose meter. Glycemic changes were graphed based on data from 6 mice and given in mean values +/−SEM.

[4] = system: db/db mutant diabetic mice; test: oGTT in diabetic db/db mice; type: in vivo, mouse; settings: 3.3, 10 or 30 mpk oral, glucose bolus 2 gram/kg, FIG. 8
Procedure: as §1, with “(2” for “(3”, “+/−SEM.” for “+/−SEM (FIG. 5 upper left panel).”

[5] = biological target: rat 5-HT6 receptor (Rattus norvegicus, UniProt P31388); settings: cited from earlier work
[6] = system: DIO female rats; settings: cited from earlier work; for cumulative weekly food intake: DIO female rats; for weight-loss versus control: after 28 days of administration, DIO rats
[7] = biological target: cloned human 5-HT6 subtype (Homo sapiens, UniProt P50406); settings: cited from earlier work
[8] = system: female DIO rat model; settings: cited from earlier work
[9] = biological target: 5-HT6 receptor (Homo sapiens, UniProt P50406); settings: cited from earlier work
[10] = system: normal lean and DIO female rats; settings: cited from earlier work
[11] = 30 mg/kg i.p., daily for 3 days, growing rats; cited from earlier work

rat 5-HT6 receptor, sequence (P31388 whole entry): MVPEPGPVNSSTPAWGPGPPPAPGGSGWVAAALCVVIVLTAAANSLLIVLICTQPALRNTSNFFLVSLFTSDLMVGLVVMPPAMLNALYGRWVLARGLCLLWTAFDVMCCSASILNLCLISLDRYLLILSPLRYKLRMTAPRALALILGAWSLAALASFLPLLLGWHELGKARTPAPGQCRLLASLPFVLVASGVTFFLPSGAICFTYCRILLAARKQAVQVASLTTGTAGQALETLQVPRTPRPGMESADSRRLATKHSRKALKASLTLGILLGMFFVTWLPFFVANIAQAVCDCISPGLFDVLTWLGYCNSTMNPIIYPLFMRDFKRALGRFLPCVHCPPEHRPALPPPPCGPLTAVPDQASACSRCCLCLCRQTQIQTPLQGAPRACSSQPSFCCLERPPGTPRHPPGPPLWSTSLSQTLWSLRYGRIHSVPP
cloned human 5-HT6 subtype, sequence (P50406 whole entry): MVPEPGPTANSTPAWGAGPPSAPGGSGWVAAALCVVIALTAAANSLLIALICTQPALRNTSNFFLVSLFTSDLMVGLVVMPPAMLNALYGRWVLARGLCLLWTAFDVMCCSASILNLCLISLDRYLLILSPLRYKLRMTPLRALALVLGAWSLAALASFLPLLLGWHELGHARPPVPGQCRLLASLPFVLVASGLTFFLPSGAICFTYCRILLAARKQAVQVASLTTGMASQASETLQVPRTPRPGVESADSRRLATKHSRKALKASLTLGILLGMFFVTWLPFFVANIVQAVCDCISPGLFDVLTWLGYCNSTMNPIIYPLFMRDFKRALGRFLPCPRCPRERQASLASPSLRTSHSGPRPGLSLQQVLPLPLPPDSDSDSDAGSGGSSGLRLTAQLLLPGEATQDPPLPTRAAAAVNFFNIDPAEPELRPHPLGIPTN
5-HT6 receptor, sequence (P50406 whole entry): as above

## Cc1[nH]c2ccc(Cl)cc2c1C1=CCNCC1 [Compound A, 5-Chloro-2-methyl-3-(1,2,3,6-tetrahydro-pyridin-4-yl)-1H-indole]
[1]
  insulin release compared to vehicle: increased insulin release
[2]
  glucose excursion in oGTT: improved glucose excursion in a dose-dependent fashion
[3]
  hypoglycemia (plasma glucose levels) compared to control: did not cause hypoglycemia
[4]
  plasma glucose concentration over time in oGTT compared to control: dose dependent decrease in plasma glucose concentration

## CN(C)CCc1c[nH]c2ccc(NS(=O)(=O)c3ccc4c(Cl)cccc4c3)cc12 [Compound E-6837]
[5]
  functionality at rat 5-HT6 receptor: partial agonist
[6]
  cumulative weekly food intake: significantly decreased consumption during the first, second and third weeks of treatment
  weight-loss versus control: 15.7%
[6]; rat, in vivo
  body composition of weight-loss: selective reduction in body fat with no changes in either water or protein content
[7]
  functionality at cloned human 5-HT6 subtype: full agonist
[8]
  food intake and adiposity: reduce food intake and adiposity

## COc1cc(Cl)cc(C(C)Nc2cc(N3CCNCC3)ccc2S(C)(=O)=O)c1OC.Cl (centres unmarked) [PRX-07034]
[9]
  Ki: 4 nM
[10]; acute studies, normal lean and DIO female rats
  food intake: inhibited food intake
[10]; rat, in vivo
  aversive effect: no aversive effect
[8]
  food intake and adiposity: reduce food intake and adiposity

## CNc1cc(NS(=O)(=O)c2ccc(N)cc2)nc(NC)n1 [Ro 04-6790]
[11]
  body weight-gain: significantly attenuated body weight-gain

## CC(C)CC(N(C)C)C1(c2ccc(Cl)cc2)CCC1 (centres unmarked) [sibutramine]
[6]
  cumulative weekly food intake: significantly reduced food intake only during the first week
  weight-loss versus control: 11.0%
